Assay results published in the Kinase Knowledgebase extract (Sharma et al. 2016).
Several values for one entry are separate records, joined by “and”; a condition that tells them apart may be missing. Equal entries are not always repeated.

What was measured:
PIK3CA (human) = PIK3CA (human) (UniProt P42336); experiment: Enzyme Assay
PIK3CD (Human) [1] = molecular target: PIK3CD (Human) (UniProt O00329); experiment: Enzyme Assay
PIK3CG (human) = PIK3CG (human) (UniProt P48736); experiment: Enzyme Assay
PIK3CB (Human) = PIK3CB (Human) (UniProt P42338); experiment: Enzyme Assay
PIK3CD (Human) [2] = molecular target: PIK3CD (Human) (UniProt O00329); experiment: Cell-Based Assay; conditions: raji

Chain of PIK3CG (human) (P48736 whole entry, looked up): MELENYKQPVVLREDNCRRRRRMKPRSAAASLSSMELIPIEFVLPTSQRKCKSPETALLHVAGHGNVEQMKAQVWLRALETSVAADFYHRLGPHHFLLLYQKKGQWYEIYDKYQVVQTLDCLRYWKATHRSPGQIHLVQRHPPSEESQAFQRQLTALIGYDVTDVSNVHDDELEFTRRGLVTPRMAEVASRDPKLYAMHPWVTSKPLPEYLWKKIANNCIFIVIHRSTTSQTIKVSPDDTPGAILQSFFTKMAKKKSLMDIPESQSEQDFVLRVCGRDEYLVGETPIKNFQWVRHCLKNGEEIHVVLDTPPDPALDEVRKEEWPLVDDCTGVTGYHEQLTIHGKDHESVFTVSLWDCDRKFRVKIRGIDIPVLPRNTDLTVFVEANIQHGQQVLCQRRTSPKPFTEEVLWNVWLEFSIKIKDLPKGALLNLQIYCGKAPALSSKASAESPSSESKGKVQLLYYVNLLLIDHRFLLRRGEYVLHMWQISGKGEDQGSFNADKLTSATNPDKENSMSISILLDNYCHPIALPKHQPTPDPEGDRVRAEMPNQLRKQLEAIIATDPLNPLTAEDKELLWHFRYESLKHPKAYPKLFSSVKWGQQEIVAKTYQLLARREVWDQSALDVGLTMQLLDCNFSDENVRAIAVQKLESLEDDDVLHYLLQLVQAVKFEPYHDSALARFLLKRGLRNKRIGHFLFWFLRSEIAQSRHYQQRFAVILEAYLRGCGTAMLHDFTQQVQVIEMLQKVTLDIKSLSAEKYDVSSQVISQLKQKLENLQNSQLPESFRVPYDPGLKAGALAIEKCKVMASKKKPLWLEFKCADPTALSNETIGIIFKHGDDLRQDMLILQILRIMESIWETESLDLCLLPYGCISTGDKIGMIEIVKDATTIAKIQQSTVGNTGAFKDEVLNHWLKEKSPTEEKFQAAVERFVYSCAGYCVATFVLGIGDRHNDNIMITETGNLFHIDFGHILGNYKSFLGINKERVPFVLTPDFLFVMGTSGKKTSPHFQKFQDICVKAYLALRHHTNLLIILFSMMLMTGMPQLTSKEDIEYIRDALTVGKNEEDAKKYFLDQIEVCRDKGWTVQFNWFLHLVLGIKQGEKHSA
Chain of PIK3CD (Human) (O00329 whole entry, looked up): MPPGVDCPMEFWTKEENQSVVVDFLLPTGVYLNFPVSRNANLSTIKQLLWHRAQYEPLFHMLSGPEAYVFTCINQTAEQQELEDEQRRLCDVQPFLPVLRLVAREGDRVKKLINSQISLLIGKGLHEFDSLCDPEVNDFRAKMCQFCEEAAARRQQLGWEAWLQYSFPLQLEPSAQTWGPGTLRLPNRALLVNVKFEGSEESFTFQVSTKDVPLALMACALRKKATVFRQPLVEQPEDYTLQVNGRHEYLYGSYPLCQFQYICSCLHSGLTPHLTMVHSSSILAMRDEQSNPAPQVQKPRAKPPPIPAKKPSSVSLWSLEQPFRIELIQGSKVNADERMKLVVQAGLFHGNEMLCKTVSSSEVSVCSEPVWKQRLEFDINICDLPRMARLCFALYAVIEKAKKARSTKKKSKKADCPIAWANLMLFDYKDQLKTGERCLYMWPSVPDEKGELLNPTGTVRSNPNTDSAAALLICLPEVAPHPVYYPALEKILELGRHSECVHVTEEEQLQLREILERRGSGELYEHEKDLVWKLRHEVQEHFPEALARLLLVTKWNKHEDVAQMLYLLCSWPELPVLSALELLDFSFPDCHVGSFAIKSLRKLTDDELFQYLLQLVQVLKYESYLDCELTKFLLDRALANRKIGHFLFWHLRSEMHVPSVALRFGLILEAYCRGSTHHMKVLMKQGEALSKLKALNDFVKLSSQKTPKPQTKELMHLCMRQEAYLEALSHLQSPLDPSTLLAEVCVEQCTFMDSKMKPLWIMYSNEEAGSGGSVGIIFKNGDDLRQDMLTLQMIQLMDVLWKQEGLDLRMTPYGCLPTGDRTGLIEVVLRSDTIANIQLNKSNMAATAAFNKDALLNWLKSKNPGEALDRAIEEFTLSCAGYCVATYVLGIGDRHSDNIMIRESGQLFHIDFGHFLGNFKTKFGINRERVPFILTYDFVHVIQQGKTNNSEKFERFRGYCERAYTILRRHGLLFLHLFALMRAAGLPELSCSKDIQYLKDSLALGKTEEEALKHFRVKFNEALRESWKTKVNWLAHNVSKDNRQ
Chain of PIK3CA (human) (P42336 whole entry, looked up): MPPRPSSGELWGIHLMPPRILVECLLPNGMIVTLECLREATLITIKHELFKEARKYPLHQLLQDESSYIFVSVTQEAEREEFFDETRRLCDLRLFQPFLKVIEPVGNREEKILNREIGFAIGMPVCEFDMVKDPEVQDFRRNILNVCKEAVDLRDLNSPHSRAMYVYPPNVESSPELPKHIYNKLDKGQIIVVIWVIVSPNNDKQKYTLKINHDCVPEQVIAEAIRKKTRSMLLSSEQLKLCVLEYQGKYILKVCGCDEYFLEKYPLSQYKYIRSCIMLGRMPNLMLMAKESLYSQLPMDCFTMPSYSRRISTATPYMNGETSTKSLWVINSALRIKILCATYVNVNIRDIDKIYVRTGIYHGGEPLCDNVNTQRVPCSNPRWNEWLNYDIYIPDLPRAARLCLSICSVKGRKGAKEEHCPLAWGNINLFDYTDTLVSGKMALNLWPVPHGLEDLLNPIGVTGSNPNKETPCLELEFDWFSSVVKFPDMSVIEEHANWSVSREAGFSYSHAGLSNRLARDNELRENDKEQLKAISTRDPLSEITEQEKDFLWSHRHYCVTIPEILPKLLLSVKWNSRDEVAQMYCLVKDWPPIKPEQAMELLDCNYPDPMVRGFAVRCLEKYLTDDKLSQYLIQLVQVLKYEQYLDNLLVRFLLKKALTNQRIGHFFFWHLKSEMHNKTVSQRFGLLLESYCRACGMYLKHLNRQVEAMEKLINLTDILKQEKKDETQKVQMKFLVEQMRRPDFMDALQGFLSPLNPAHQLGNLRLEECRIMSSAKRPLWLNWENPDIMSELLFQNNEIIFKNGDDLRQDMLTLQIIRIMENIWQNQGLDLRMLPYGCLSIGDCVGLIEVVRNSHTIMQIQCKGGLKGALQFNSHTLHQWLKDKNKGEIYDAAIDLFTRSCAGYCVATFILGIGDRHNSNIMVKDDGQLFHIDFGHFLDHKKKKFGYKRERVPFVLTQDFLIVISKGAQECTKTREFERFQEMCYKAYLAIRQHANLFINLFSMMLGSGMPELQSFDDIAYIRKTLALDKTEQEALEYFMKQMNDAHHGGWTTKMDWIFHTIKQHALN
Chain of PIK3CB (Human) (P42338 whole entry, looked up): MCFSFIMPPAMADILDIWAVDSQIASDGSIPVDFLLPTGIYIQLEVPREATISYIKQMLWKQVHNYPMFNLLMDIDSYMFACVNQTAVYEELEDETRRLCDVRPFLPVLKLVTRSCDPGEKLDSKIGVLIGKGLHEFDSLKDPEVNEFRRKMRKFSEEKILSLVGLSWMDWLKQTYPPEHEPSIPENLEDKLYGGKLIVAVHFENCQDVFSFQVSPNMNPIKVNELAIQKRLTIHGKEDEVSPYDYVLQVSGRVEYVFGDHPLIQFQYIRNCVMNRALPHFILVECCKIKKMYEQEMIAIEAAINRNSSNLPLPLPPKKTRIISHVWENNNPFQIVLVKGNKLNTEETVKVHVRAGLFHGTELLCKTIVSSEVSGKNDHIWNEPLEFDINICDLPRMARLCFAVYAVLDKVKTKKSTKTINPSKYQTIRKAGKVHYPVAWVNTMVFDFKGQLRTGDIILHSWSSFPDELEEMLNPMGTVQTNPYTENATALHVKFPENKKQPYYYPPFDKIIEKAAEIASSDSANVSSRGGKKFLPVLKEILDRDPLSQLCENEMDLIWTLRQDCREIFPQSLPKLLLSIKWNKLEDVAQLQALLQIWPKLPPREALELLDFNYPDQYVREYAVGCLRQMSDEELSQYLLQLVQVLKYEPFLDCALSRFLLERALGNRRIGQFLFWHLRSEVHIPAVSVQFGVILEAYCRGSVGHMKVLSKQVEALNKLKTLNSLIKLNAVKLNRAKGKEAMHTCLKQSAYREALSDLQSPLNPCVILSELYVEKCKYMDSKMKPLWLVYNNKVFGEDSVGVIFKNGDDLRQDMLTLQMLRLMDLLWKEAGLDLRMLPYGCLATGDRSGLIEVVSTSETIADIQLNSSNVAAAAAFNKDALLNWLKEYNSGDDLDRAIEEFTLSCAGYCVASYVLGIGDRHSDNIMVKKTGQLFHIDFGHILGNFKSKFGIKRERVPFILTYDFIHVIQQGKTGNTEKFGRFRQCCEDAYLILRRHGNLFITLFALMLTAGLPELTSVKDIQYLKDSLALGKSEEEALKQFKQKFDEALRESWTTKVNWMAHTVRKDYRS

SMILES	IC50 (PIK3CA (human)) [µM]	IC50 (PIK3CD (Human) [1])	IC50 (PIK3CG (human)) [µM]	IC50 (PIK3CB (Human))	IC50 (PIK3CD (Human) [2]) [µM]
C[C@H](NC(=O)c1c(N)nn2cccnc12)c1nn2ccc(-c3cnn(C)c3)c2c(=O)n1-c1ccccc1	≥ 10	≥ 10 µM	≥ 10	≥ 10 µM	
C[C@H](NC(=O)c1c(N)nn2cccnc12)c1cc2cccc(NC3CCCCC3)c2c(=O)n1-c1ccccc1	≥ 10	≥ 10 µM	≥ 10	≥ 10 µM	
C[C@H](NC(=O)c1c(N)nn2cccnc12)c1cc2cccc(O)c2c(=O)n1-c1ccccc1	≥ 10	≥ 10 µM			0.1 to 1
C[C@H](NC(=O)c1c(N)nn2cccnc12)c1cc2cccc(NCC(F)(F)F)c2c(=O)n1-c1ccccc1	≥ 10	≥ 10 µM		≥ 10 µM	0.1 to 1
C[C@H](NC(=O)c1nc(-c2cccc(O)c2)cnc1N)c1cc2cccc(Cl)c2c(=O)n1-c1ccccc1	≥ 10	≥ 10 µM			0.1 to 1
CC(=O)N(C)Cc1cccc2cc([C@H](C)NC(=O)c3c(N)nn4cccnc34)n(-c3ccccc3)c(=O)c12	≥ 10	< 0.1 µM	≥ 10	≥ 10 µM	
C[C@H](NC(=O)c1c(N)nn2cccnc12)c1cc2cccc(Cl)c2c(=O)n1CC(=O)N(C)C	≥ 10	≥ 10 µM	≥ 10		
CC(C)Oc1ccc(-c2cnc(N)c(C(=O)N[C@@H](C)c3cc4cccc(Cl)c4c(=O)n3-c3ccccc3)n2)cc1Cl	≥ 10	≥ 10 µM		≥ 10 µM	≥ 10
C[C@H](NC(=O)c1nc(-c2ccc(S(C)(=O)=O)cc2)cnc1N)c1cc2cccc(Cl)c2c(=O)n1-c1ccccc1	≥ 10	≥ 10 µM		≥ 10 µM	
C[C@H](NC(=O)c1nc(-c2cccc(NS(C)(=O)=O)c2)cnc1N)c1cc2cccc(N3CCOCC3)c2c(=O)n1-c1ccccc1	≥ 10	≥ 10 µM		≥ 10 µM	
C[C@H](NC(=O)c1nc(-c2cncc(NS(C)(=O)=O)c2)cnc1N)c1cc2cccc(Cl)c2c(=O)n1C1CC1	< 0.1	< 0.1 µM	< 0.1	< 0.1 µM	
C[C@H](NC(=O)c1cc(-c2cccc(NS(C)(=O)=O)c2)cnc1N)c1cc2cccc(Cl)c2c(=O)n1-c1ccccc1	≥ 10	≥ 10 µM	≥ 10	≥ 10 µM	
C[C@H](NC(=O)c1c(N)nn2cccnc12)c1cc2scc(-c3cnn(C)c3)c2c(=O)n1-c1ccccc1	≥ 10	≥ 10 µM		≥ 10 µM	
COc1cccc(-c2cnc(N)c(C(=O)N[C@@H](C)c3cc4cccc(Cl)c4c(=O)n3-c3ccccc3)n2)c1	≥ 10	≥ 10 µM	≥ 10	≥ 10 µM	
CC(C)c1ccnc2c(C(=O)N[C@@H](C)c3cc4cccc(Cl)c4c(=O)n3-c3ccccc3)c(N)nn12	≥ 10	≥ 10 µM	≥ 10	≥ 10 µM	
C[C@H](NC(=O)c1nc(-c2csc(S(C)(=O)=O)n2)cnc1N)c1cc2cccc(Cl)c2c(=O)n1-c1ccccc1	≥ 10	≥ 10 µM			
C[C@H](NC(=O)c1c(N)nn2cccnc12)c1cc2cccc(N3CCOCC3)c2c(=O)n1-c1ccccc1	≥ 10	≥ 10 µM		≥ 10 µM	
Cc1c([C@H](C)NC(=O)c2c(N)nn3cccnc23)n(-c2ccccc2)c(=O)c2c(F)cccc12		0.1 to 1 µM	< 0.1	0.1 to 1 µM	< 0.1
C[C@H](NC(=O)c1c(N)nn2cccnc12)c1cc2scc(Cl)c2c(=O)n1-c1ccccc1		0.1 to 1 µM	< 0.1	0.1 to 1 µM	< 0.1
COc1cc(-c2cccc3cc(C(C)NC(=O)c4c(N)nn5cccnc45)c(-c4ccccc4)nc23)ccn1 (stereo not given)	≥ 10	≥ 10 µM		≥ 10 µM	0.1 to 1
CC(C)Oc1ccc(-c2cnc(N)c(C(=O)N[C@@H](C)c3cc4cccc(Cl)c4c(=O)n3-c3ccccc3)n2)cc1	≥ 10	≥ 10 µM		≥ 10 µM	≥ 10
C[C@H](NC(=O)c1c(N)nn2cccnc12)c1nn2ccc(Cl)c2c(=O)n1-c1ccccc1	≥ 10	≥ 10 µM	≥ 10	≥ 10 µM	
Nc1nn2cccnc2c1C(=O)N1CCC[C@H]1c1cc2cccc(Cl)c2c(=O)n1-c1ccccc1	≥ 10	≥ 10 µM			
C=CCn1c([C@H](C)NC(=O)c2c(N)nn3cccnc23)cc2cccc(Cl)c2c1=O		0.1 to 1 µM	0.1 to 1	< 0.1 µM	< 0.1
COC(=O)c1ncsc1-c1cccc2cc([C@H](C)NC(=O)c3c(N)nn4cccnc34)n(-c3ccccc3)c(=O)c12	≥ 10	≥ 10 µM		≥ 10 µM	
COc1cc(-c2csc3cc([C@H](C)NC(=O)c4c(N)nn5cccnc45)n(-c4ccccc4)c(=O)c23)ccn1	≥ 10	≥ 10 µM	≥ 10	≥ 10 µM	

SMILES	IC50 (PIK3CA (human)) [µM]	IC50 (PIK3CD (Human) [1])	IC50 (PIK3CG (human)) [µM]	IC50 (PIK3CB (Human))	IC50 (PIK3CD (Human) [2]) [µM]
C[C@H](NC(=O)c1c(N)nn2cccnc12)c1cc2cccc(-c3cncc(NS(C)(=O)=O)c3)c2c(=O)n1-c1ccccc1		0.1 to 1 µM	0.1 to 1	≥ 10 µM	< 0.1
COc1cc(-c2cccc3nc([C@H](C)NC(=O)c4c(N)nn5cccnc45)n(-c4ccccc4)c(=O)c23)ccn1	0.1 to 1	0.1 to 1 µM	< 0.1		< 0.1
C[C@H](NC(=O)c1nccnc1N)c1cc2cccc(-c3cccnc3)c2c(=O)n1-c1ccccc1	≥ 10	< 0.1 µM		≥ 10 µM	< 0.1
C[C@H](NC(=O)c1c(N)nn2c1NCCC2)c1cc2cccc(Cl)c2c(=O)n1-c1ccccc1	≥ 10	≥ 10 µM	≥ 10	≥ 10 µM	
Cc1cnc(C(=O)N[C@@H](C)c2cc3cccc(C(F)(F)F)c3c(=O)n2-c2ccccc2)c(N)n1	≥ 10	≥ 10 µM		≥ 10 µM	
C[C@H](NC(=O)c1c(N)nn2cccnc12)c1cc2cccc(F)c2c(=O)n1-c1ccccc1	≥ 10	≥ 10 µM and 0.1 to 1 µM		≥ 10 µM and 0.1 to 1 µM	< 0.1
Nc1nn2cccnc2c1C(=O)NCc1cc2cccc(Cl)c2c(=O)n1-c1ccccc1	≥ 10	≥ 10 µM	≥ 10	≥ 10 µM	
Cc1ccn2nc(N)c(C(=O)N[C@@H](C)c3cc4cccc(Cl)c4c(=O)n3-c3ccccc3)c2n1		0.1 to 1 µM	0.1 to 1	< 0.1 µM	< 0.1
C[C@H](NC(=O)c1c(N)nn2cccnc12)c1cc2cccc(N3CCN(C)CC3)c2c(=O)n1-c1ccccc1	≥ 10	≥ 10 µM	≥ 10	≥ 10 µM	
CC(C)Nc1cccc2cc([C@H](C)NC(=O)c3c(N)nn4cccnc34)n(-c3ccccc3)c(=O)c12	≥ 10	≥ 10 µM	≥ 10	≥ 10 µM	
C[C@H](NC(=O)c1c(N)nn2cccnc12)c1cc2cccc(Cl)c2c(=O)n1CCN(C)C	≥ 10	< 0.1 µM		< 0.1 µM	< 0.1
C[C@H](NC(=O)c1c(N)nn2cccnc12)c1c(C#N)c2cccc(F)c2c(=O)n1-c1ccccc1		0.1 to 1 µM	0.1 to 1	0.1 to 1 µM	< 0.1
COc1cc(-c2cccc3cc([C@H](C)NC(=O)c4c(N)nn5cccnc45)n(C4CCCCC4)c(=O)c23)ccn1	≥ 10	≥ 10 µM		≥ 10 µM	
C[C@H](NC(=O)c1c(N)nn2cccnc12)c1cc2cccc(/C=C/c3ccccc3)c2c(=O)n1-c1ccccc1	≥ 10	≥ 10 µM	≥ 10	≥ 10 µM	
CC(=O)Nc1ncc(-c2cccc(NS(C)(=O)=O)c2)nc1C(=O)N[C@@H](C)c1cc2cccc(Cl)c2c(=O)n1C	≥ 10	≥ 10 µM	≥ 10	≥ 10 µM	
C[C@H](NC(=O)c1nccnc1N)c1cc2cccc(-c3cc[nH]n3)c2c(=O)n1-c1ccccc1	≥ 10	0.1 to 1 µM		≥ 10 µM	< 0.1
C[C@H](NC(=O)c1nc(-c2ccccc2)cnc1N)c1cc2cccc(Cl)c2c(=O)n1-c1ccccc1	≥ 10	≥ 10 µM		≥ 10 µM	0.1 to 1
C[C@H](NC(=O)c1cncc2cccnc12)c1cc2cccc(Cl)c2c(=O)n1-c1ccccc1	≥ 10	0.1 to 1 µM			< 0.1
C[C@H](NC(=O)c1c(N)nn2cccnc12)c1cc2cccc(CN(C)C)c2c(=O)n1-c1ccccc1	≥ 10	< 0.1 µM	≥ 10	≥ 10 µM	
C[C@H](NC(=O)c1nc(-c2ccc(NS(C)(=O)=O)cc2)cnc1N)c1cc2cccc(Cl)c2c(=O)n1-c1ccccc1	≥ 10	≥ 10 µM		≥ 10 µM	
C[C@H](NC(=O)c1nccnc1N)c1nc2cccc(Cl)c2c(=O)n1-c1ccccc1	≥ 10	< 0.1 µM	0.1 to 1		
C[C@H](NC(=O)c1c(N)nn2cccnc12)c1cc2cccc(Cl)c2c(=O)n1CC(O)CO (stereo not given in full)		0.1 to 1 µM	0.1 to 1	< 0.1 µM	< 0.1
C[C@H](NC(=O)c1c(N)nn2cccnc12)c1cc2cccc(N(C)C)c2c(=O)n1-c1ccccc1	≥ 10	≥ 10 µM		≥ 10 µM	
C[C@H](NC(=O)c1c(N)ncc2cccnc12)c1cc2cccc(Cl)c2c(=O)n1-c1ccccc1		0.1 to 1 µM	0.1 to 1	0.1 to 1 µM	< 0.1
COc1cncc(-c2cccc3cc([C@H](C)NC(=O)c4c(N)nn5cccnc45)n(-c4ccccc4)c(=O)c23)c1		0.1 to 1 µM	< 0.1	≥ 10 µM	< 0.1
C[C@H](NC(=O)c1c(N)nn2cccnc12)c1cc2cccc(Cl)c2c(=O)n1-c1cccc(F)c1		0.1 to 1 µM	< 0.1	0.1 to 1 µM	< 0.1
